In brackets after ≈: the same amount, converted by molar mass.
Columns and labels:
[1] = system: Mycobacterium tuberculosis; test: Antitubercular activity against Mycobacterium tuberculosis H37Rv by broth dilution method; type: functional
[2] = system: Mycobacterium tuberculosis; test: Antitubercular activity against Mycobacterium tuberculosis H37Rv; type: functional
[3] = system: Mycobacterium tuberculosis; test: Antitubercular activity against Mycobacterium tuberculosis spec.210; type: functional
[4] = system: Mycobacterium tuberculosis; test: Antitubercular activity against Mycobacterium tuberculosis spec.192; type: functional
[5] = system: Mycobacterium tuberculosis; test: Antitubercular activity against Mycobacterium tuberculosis H37Rv by Lowensteine-Jensen method; type: functional
[6] = system: Mycobacterium tuberculosis; test: Growth inhibition of Mycobacterium tuberculosis H37Rv ATCC 27294 at 6.25 ug/ml by BACTEC radiometric method relative to control; type: functional; conditions: read-out: GI
[7] = system: Mycobacterium tuberculosis; test: Antitubercular activity against Mycobacterium tuberculosis H37Rv ATCC 27294 at 6.25 ug/ml by BACTEC radiometric method relative to control; type: functional
[8] = system: Mycobacterium tuberculosis; test: Growth inhibition of Mycobacterium tuberculosis H37Rv at 62.5 ug/ml by broth dilution method relative to control; type: functional; conditions: read-out: GI
[9] = system: Mycobacterium tuberculosis; test: Potency index, ratio of pyrazinamide MIC to compound MIC for Mycobacterium tuberculosis H37Rv; type: functional
[10] = system: Mycobacterium tuberculosis; test: Antitubercular activity against Mycobacterium tuberculosis; type: functional
[11] = system: Mycobacterium tuberculosis; test: Potency index, ratio of pyrazinamide MIC to compound MIC for Mycobacterium tuberculosis; type: functional
Pantothenate synthetase = target: T1, Pantothenate synthetase (Mycobacterium tuberculosis, UniProt P9WIL5); test: Inhibition of Mycobacterium tuberculosis pantothenate synthetase
T1 sequence (P9WIL5 whole entry): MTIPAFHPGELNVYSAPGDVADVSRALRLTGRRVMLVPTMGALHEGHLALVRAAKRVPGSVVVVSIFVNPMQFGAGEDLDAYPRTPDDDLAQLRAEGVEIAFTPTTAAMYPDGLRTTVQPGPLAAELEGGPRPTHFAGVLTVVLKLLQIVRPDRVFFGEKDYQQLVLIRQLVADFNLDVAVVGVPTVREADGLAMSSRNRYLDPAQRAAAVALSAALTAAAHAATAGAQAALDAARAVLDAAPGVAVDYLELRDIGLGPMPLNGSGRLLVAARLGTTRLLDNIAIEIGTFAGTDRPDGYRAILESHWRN

Row | SMILES | MIC [2] | MIC [3] [µM] | MIC [4] [µM] | MIC [5] [µg/mL] | other results
1 | CCOC(=O)C1=C(C)NC(=O)NC1c1cn(-c2ccccc2)nc1-c1ccc([N+](=O)[O-])cc1 (stereo not given) |  |  |  |  | MIC [1]: 0.02 µg/mL (≈ 0.0447 µM)
2 | O=C(Nc1ccccc1)N1CCc2c(cnn2Cc2cn(-c3ccccc3Cl)nn2)C1 | 24.7 to 200 µM | 24.7 to 200 (≈ 10.7 to 86.8 µg/mL) | 24.7 to 200 (≈ 10.7 to 86.8 µg/mL) |  | 
3 | O=C(Nc1ccccc1)N1CCc2c(cnn2Cc2cn(-c3ccc(Cl)c(Cl)c3)nn2)C1 | 24.7 to 200 µM | 24.7 to 200 (≈ 11.6 to 93.7 µg/mL) | 24.7 to 200 (≈ 11.6 to 93.7 µg/mL) |  | 
4 | O=C(NCCCn1ncc2ccc([N+](=O)[O-])cc21)N1C(=O)C(Cl)C1c1ccccc1O (stereo not given) |  |  |  | 6.25 to 50 (≈ 14.1 to 113 µM) | 
5 | COc1nc2ccc(Br)cc2c2c1C(C)(OCC(O)Cn1ccc(-c3ccc(C)c(C)c3)n1)c1ccccc1-2 (stereo not given) |  |  |  |  | inhibition of growth at 6.25 µg/mL [6]: 40 to 88%; MIC99 [7]: 5 µM (≈ 2.92 µg/mL)
6 | Cc1nn(-c2ccccc2)c2c1C(c1cccc([N+](=O)[O-])c1)c1c(N)nc(=O)[nH]c1O2 (stereo not given) |  |  |  |  | inhibition of growth at 62.5 µg/mL [8]: 98%
7 | O=C(NCCCn1ncc2ccc([N+](=O)[O-])cc21)N1C(=O)C(Cl)C1c1ccc(Br)cc1 (stereo not given) |  |  |  | 6.25 to 50 (≈ 12.3 to 98.7 µM) | 
8 | Cc1cc(-n2nc(C(=O)NCC(F)(F)F)cc2-c2cccnc2)c2cccc(C(F)(F)F)c2n1 | 3.13 µg/mL |  |  |  | Ratio [9]: 16
9 | COc1ccc(-n2cc(Cn3ncc4c3CCN(C(=O)Nc3ccccc3)C4)nn2)cc1OC | 24.7 to 200 µM | 24.7 to 200 (≈ 11.4 to 91.9 µg/mL) | 24.7 to 200 (≈ 11.4 to 91.9 µg/mL) |  | 
10 | CCOC(=O)C1=C(C)NC(=O)NC1c1cn(-c2ccccc2)nc1-c1ccc(F)cc1 (stereo not given) |  |  |  |  | MIC [1]: 0.02 µg/mL (≈ 0.0476 µM)
11 | O=C(Nc1ccccc1)N1CCc2c(cnn2Cc2cn(-c3ccc(Cl)cc3)nn2)C1 | 24.7 to 200 µM | 24.7 to 200 (≈ 10.7 to 86.8 µg/mL) | 24.7 to 200 (≈ 10.7 to 86.8 µg/mL) |  | 
12 | O=C(Nc1ccccc1)N1CCc2c(cnn2Cc2cn(-c3ccc(Br)cc3)nn2)C1 | 24.7 to 200 µM | 24.7 to 200 (≈ 11.8 to 95.7 µg/mL) | 24.7 to 200 (≈ 11.8 to 95.7 µg/mL) |  | 
13 | Cc1nn(-c2ccccc2)c2c1C(c1cccc([N+](=O)[O-])c1)c1c(nc[nH]c1=O)O2 (stereo not given) |  |  |  |  | inhibition of growth at 62.5 µg/mL [8]: 98%
14 | O=C(NCCCn1ncc2ccc([N+](=O)[O-])cc21)N1C(=O)C(Cl)C1c1ccc(O)cc1 (stereo not given) |  |  |  | 6.25 to 50 (≈ 14.1 to 113 µM) | 
15 | NNC(=O)c1ccncc1 [ISONIAZID] | 0.03 µg/mL |  |  | 0.2 to 4 (≈ 1.46 to 29.2 µM) | MIC [1]: 0.03 µg/mL (≈ 0.219 µM); MIC99 [7]: 1.86 µM (≈ 0.255 µg/mL)
16 | O=C(Nc1ccccc1)N1CCc2c(cnn2Cc2cn(-c3ccccc3I)nn2)C1 | 24.7 to 200 µM | 24.7 to 200 (≈ 13 to 105 µg/mL) | 24.7 to 200 (≈ 13 to 105 µg/mL) |  | 

Row | SMILES | MIC [2] | MIC [3] [µM] | MIC [4] [µM] | MIC [5] [µg/mL] | other results
17 | CCOC(=O)C1=C(C)NC(C)=C(C(=O)OCC)C1c1cn(-c2ccccc2)nc1-c1ccc(Br)cc1 | 0.02 µg/mL |  |  |  | 
18 | NC(=O)c1cnccn1 [PYRAZINAMIDE] | 50 µg/mL |  |  | 0.2 to 4 (≈ 1.62 to 32.5 µM) | MIC [10]: 100 µg/mL (≈ 812 µM)
19 | CO[C@H]1/C=C/O[C@@]2(C)Oc3c(C)c(O)c4c(O)c(c(/C=N/N5CCN(C)CC5)c(O)c4c3C2=O)NC(=O)/C(C)=C\C=C\[C@H](C)[C@H](O)[C@@H](C)[C@@H](O)[C@@H](C)[C@H](OC(C)=O)[C@@H]1C [RIFAMPIN] |  |  |  | 0.2 to 4 (≈ 0.243 to 4.86 µM) | 
20 | Fc1ccc(-c2nnc(-c3n[nH]cc3-c3ccc(Cl)cc3)o2)cc1 |  |  |  |  | MIC [10]: 25 µg/mL (≈ 73.4 µM); Ratio [11]: 4
21 | Cc1cccc(C2C(Cl)C(=O)N2C(=O)NCCCn2ncc3ccc([N+](=O)[O-])cc32)c1 (stereo not given) |  |  |  | 6.25 to 50 (≈ 14.1 to 113 µM) | 
22 | O=C(Nc1ccccc1)N1CCc2c(cnn2Cc2cn(-c3ccccc3)nn2)C1 | 24.7 to 200 µM | 24.7 to 200 (≈ 9.87 to 79.9 µg/mL) | 24.7 to 200 (≈ 9.87 to 79.9 µg/mL) |  | 
23 | O=C(NCCCn1ncc2ccc([N+](=O)[O-])cc21)N1C(=O)C(Cl)C1c1cccc(Br)c1 (stereo not given) |  |  |  | 6.25 to 50 (≈ 12.3 to 98.7 µM) | 
24 | Cc1ccccc1C1C(Cl)C(=O)N1C(=O)NCCCn1ncc2ccc([N+](=O)[O-])cc21 (stereo not given) |  |  |  | 6.25 to 50 (≈ 14.1 to 113 µM) | 
25 | O=C(Nc1ccccc1)N1CCc2c(cnn2Cc2cn(-c3ccc(F)c(Cl)c3)nn2)C1 | 24.7 to 200 µM | 24.7 to 200 (≈ 11.2 to 90.4 µg/mL) | 24.7 to 200 (≈ 11.2 to 90.4 µg/mL) |  | 
26 | O=C(NCCCn1ncc2ccc([N+](=O)[O-])cc21)N1C(=O)C(Cl)C1c1ccccc1Br (stereo not given) |  |  |  | 6.25 to 50 (≈ 12.3 to 98.7 µM) | 
27 | O=C(NCCCn1ncc2ccc([N+](=O)[O-])cc21)N1C(=O)C(Cl)C1c1cccc(Cl)c1 (stereo not given) |  |  |  | 6.25 to 50 (≈ 13.5 to 108 µM) | 
28 | O=C(Nc1ccccc1)N1CCc2c(cnn2Cc2cn(-c3ccccc3F)nn2)C1 | 24.7 to 200 µM | 24.7 to 200 (≈ 10.3 to 83.5 µg/mL) | 24.7 to 200 (≈ 10.3 to 83.5 µg/mL) |  | 
29 | O=C(Nc1ccccc1)N1CCc2c(cnn2Cc2cn(-c3ccc(F)c(F)c3)nn2)C1 | 24.7 to 200 µM | 24.7 to 200 (≈ 10.8 to 87.1 µg/mL) | 24.7 to 200 (≈ 10.8 to 87.1 µg/mL) |  | 
30 | O=C(Nc1ccccc1)N1CCc2c(cnn2Cc2cn(-c3ccc(F)cc3)nn2)C1 | 24.7 to 200 µM | 24.7 to 200 (≈ 10.3 to 83.5 µg/mL) | 24.7 to 200 (≈ 10.3 to 83.5 µg/mL) |  | 
31 | COc1ccc(-n2cc(Cn3ncc4c3CCN(C(=O)Nc3ccccc3)C4)nn2)cc1 | 24.7 µM | 24.7 (≈ 10.6 µg/mL) | 24.7 (≈ 10.6 µg/mL) |  | IC50 (Pantothenate synthetase): 1010 nM
32 | O=C(NCCCn1ncc2ccc([N+](=O)[O-])cc21)N1C(=O)C(Cl)C1c1cccc(O)c1 (stereo not given) |  |  |  | 6.25 to 50 (≈ 14.1 to 113 µM) | 

From ChEMBL document CHEMBL4130388, “Recent advances of pyrazole-containing derivatives as anti-tubercular agents” (Eur J Med Chem, 2017)
